Earlier results, collected in patent US20090270472A1, “METHOD TO USE OXYMETAZOLINE TO INTERRUPT THE DEVELOPMENT OF THE COMMON COLD SYNDROME” (priority 2008, published 2009).

Conditions: subjects with acute rhinitis; six (6) days with saline placebo

Structure (SMILES): Cc1cc(C(C)(C)C)c(O)c(C)c1CC1=NCCN1 [oxymetazoline]
- duration of rhinitis: 4 days
